The source of these data is patent US12350277B2, “Compositions and methods of use for treating aberrant inflammation in peri-ocular secretory glands or at the ocular surface” (CS Pharmaceuticals Limited, priority 2017, dated 2025).

Where two headings read alike, the source gives them in different places.

The nature of data set [1]: plasma exposure after BID eyelid cream administration in minipigs. The class given is in vivo, Hanford minipigs. Here is the method: (§1) To determine the ocular exposure and pharmacokinetics following topical cream administration to the eyelids, the cream containing 2% of compound of Formula I was applied BID to eyelids of 8 Hanford minipigs for 7 days and one additional application on day 8 for a total of 15 topical doses. After the last dose on day 8, two animals each were euthanized at 2, 4, 8, and 24 hours after the final dose, and eyes were collected for dissection into the following tissues and fluids: eyelids (including palpebral conjunctiva), bulbar conjunctiva, cornea, iris/ciliary body (ICB), and aqueous humor (AQH). Plasma was also collected (prior to dose application on Days 1 and 8, and prior to euthanasia). […] Meibum was believed to be only one lipid compartment in the eyelids that could act as a depot for lipophilic compounds. […] and other fatty tissues were others. Attempts to express meibum from the ducts, thereby rendering the eyelid itself unusable for further analysis, would have not permitted assessment of drug content in other potential lipid structures in the eyelids. Thus, the decision was made to assess drug exposure in the eyelid as an intact tissue to capture all potential drug depots.
Three different extraction and analytical methods were developed for the determination of the compound of Formula I in i) plasma and aqueous humor; ii) bulbar conjunctiva, cornea, ICB; iii) eyelids. Assay ranges were 0.1-100 ng/mL, 1-1000 ng/g, and 1-1000 ng/g, respectively. Briefly, analytical methods were as follows: i) plasma and aqueous humor standards were from minipig and rabbit, respectively; ii) bulbar conjunctiva, cornea, ICB standard was rabbit cornea; iii) eyelid standard was pig skin. The internal standard working solution for analytical purposes was comprised of 20.0 ng/mL ^13C2, ^15N-labeled compound of Formula I in acetonitrile with 1% formic acid (v/v) which was being added to each sample. […]

Data set [2] concerns rabbits, atropine sulfate model of dry eye disease. The experiment in a line: tear formation (Schirmer test) in atropine sulfate model of dry eye disease. The class given is in vivo. To be noted: 30 μL eye drops four times per day after atropine sulfate 1%, seven days. The method, then:
Next, the effect on tear formation of treatment with the compound of Formula I was examined. Rabbits were placed in a restraining device, and atropine sulfate 1% ophthalmic solution (30 μL) was instilled into the lower conjunctival sac of each eye four times per day. Fifteen minutes after the administration of each dose of atropine sulfate, each eye received 30 μL of eye drops containing the active ingredient, vehicle, or saline. Tear volume was then evaluated by the Schirmer test (FIG. 2). Schirmer strips were carefully placed in the posterior (i.e., temporal) lower fornix for 60 seconds, and the wetted area was read in millimeters as an index of tear volume.

Data set [3] relates to models of lung inflammation. Particulars: mouse, intratracheal dosing; cited from earlier work.
Data set [4] can be described thus: in vitro skin penetration, human cadaver skin in Franz-type diffusion cells. The class given is in vitro ADME. Here is the method: An in vitro skin penetration model using human cadaver skin mounted in Franz-type diffusion cells (FDC) was chosen to determine the skin permeation of the compound of Formula I applied as a 2% cream to the epidermal surface. Transdermal flux into a receptor fluid was measured over a period of 46 hours after application of the formulations. At the end of the 46-hour incubation period, the skin was tape-stripped and heat separated based on an established method and the concentration of the compound of Formula I was measured in the residual epidermis and dermis. The applied formulations comprised of 2% w/w compound of Formula I, 46% w/w white petrolatum, 8% w/w mineral oil, 8% w/w propylene glycol, 6.6% w/w ST-cyclomethicone-SNF, 3.3% w/w emulsifier 10, 2% w/w ST-elastomer-10, 0.08% w/w methylparaben, 0.06% w/w sodium phosphate dibasic anhydrous, 0.05% w/w citric acid anhydrous, 0.02% w/w propylparaben, and q.s. purified water. Vehicle cream comprised of 48% w/w white petrolatum, 8% w/w mineral oil, 8% w/w propylene glycol, 6.6% w/w ST-cyclomethicone-SNF, 3.3% w/w emulsifier 10, 2% w/w ST-elastomer-10, 0.08% w/w methylparaben, 0.06% w/w sodium phosphate dibasic anhydrous, 0.05% w/w citric acid anhydrous, 0.02% w/w propylparaben, and q.s. purified water was also tested as a negative control. […]
A high performance liquid chromatography UV (“HPLC-UV”) analytical method and an LC-MS/MS method for detecting the compound of Formula I in the skin and in the receptor fluid samples, respectively, was implemented and employed mobile phases A (0.05 mL trifluoroacetic acid (TFA) in 1000 mL LC-MS grade water) and B (0.05 mL TFA in 1000 mL LC-MS grade acetonitrile). The lower level of quantification (LLOQ) for the compound of Formula I for the LC-MS/MS method was determined to be in the 6-10 ng/mL range.

Data set [5] is described as follows: ocular exposure and pharmacokinetics after BID eyelid cream administration in minipigs. The class given is in vivo, Hanford minipigs. Particulars: for concentration at 8 h: 8 hours post final dose. Here is the method: as §1
Three different extraction and analytical methods were developed for the determination of the compound of Formula I in i) plasma and aqueous humor; ii) bulbar conjunctiva, cornea, ICB; iii) eyelids. Assay ranges were 0.1-100 ng/mL, 1-1000 ng/g, and 1-1000 ng/g, respectively. Briefly, analytical methods were as follows: i) plasma and aqueous humor standards were from minipig and rabbit, respectively; ii) bulbar conjunctiva, cornea, ICB standard was rabbit cornea; iii) eyelid standard was pig skin. The internal standard working solution for analytical purposes was comprised of 20.0 ng/mL ^13C2, ^15N-labeled compound of Formula I in acetonitrile with 1% formic acid (v/v) which was being added to each sample. The tissue/fluid sample extraction procedure involved i) plasma/aqueous humor sample; ii) bulbar conjunctiva, cornea, ICB homogenization in acetonitrile; iii) eyelid digestion in 1:1 acetonitrile:ammonium hydroxide solution for 1.5 hours at 37° C. followed by acetonitrile addition, homogenization, and neutralization with formic acid; in all cases followed by addition of internal standard working solution, vortexing and centrifugation. Analysis of the samples was then carried out with LC-MS/MS, employing mobile phases A (Water with 0.1% formic acid) and B (acetonitrile with 0.1% formic acid).

[6] abbreviates: 46 hours after 10 μL of 2% cream on epidermal surface, 6 replicates.

`C[C@@H]1C[C@H]2[C@@H]3C[C@H](F)C4=CC(=O)C=C[C@]4(C)[C@@]3(F)[C@@H](O)C[C@]2(C)[C@@]1(OC(=O)C1C(C)(C)C1(C)C)C(=O)OCC#N` [compound of Formula I, 6α,9α-difluoro-11 β-hydroxy-16α-methyl-3-oxo-17α-(2,2,3,3-tetramethycyclopropylcarbonyl)oxy-androsta-1,4-diene-17β-carboxylic acid cyanomethyl ester] displayed a highest plasma concentration in data set [1] (24 hours following the final Day 8 dose) of 2.22 ng/mL. Further, the systemic accumulation entry in data set [1] (after 7.5 days of multiple topical eyelid application) is listed as “no or very low systemic accumulation”. Moreover, the plasma exposure entry in data set [1] (up to 24 hours after last application, LLOQ 0.1 ng/mL) was “generally low or below the lower limit of quantification”. Besides, in data set [2], the “tear formation (Schirmer test)” value is “prevented a decrease in tear formation similar to topical dexamethasone”. Moreover, the “anti-inflammatory activity in models of lung inflammation” value in data set [3] is recorded as “potent anti-inflammatory activity”. For the same compound, in data set [4] (4, 8, 24 and 46 hours after application of 2% cream), the “detection in transdermal receptor fluid” value is “not in the transdermal receptor fluid”. Moreover, in data set [4] (setting [6]), the “accumulated amount in the dermis” value is listed as 0.73+/−0.21 μg/cm^2 and the “accumulated amount in the epidermis” value was 2.89+/−0.32 μg/cm^2. The “highest mean concentration in eyelid tissue” value in data set [5] (4 hours post final dose, 2% cream, 15 applications over 7.5 days) is reported as 30613 ng/g. Further, the concentration at 8 h in data set [5] (Hanford, minipig, aqueous humor, topical, BID, 2% cream, 15 applications over 7.5 days, read-out: mean concentration in aqueous humor) is 5.81 ng/g. For the same compound, in data set [5] (Hanford, minipig, bulbar conjunctiva, topical, BID, 4 hours post final dose, 2% cream, 15 applications over 7.5 days), the concentration at 4 h was found to be 1930 ng/g. Moreover, the concentration at 8 h in data set [5] (Hanford, minipig, cornea, topical, BID, 2% cream, 15 applications over 7.5 days, read-out: mean concentration in cornea) came out at 452 ng/g. In data set [5] (Hanford, minipig, iris/ciliary body (ICB), topical, BID, 24 hours post final dose, 2% cream, 15 applications over 7.5 days), this compound gave a concentration at 24 h of 20.5 ng/g. Also, the “exposure levels in each compartment over time” value in data set [5] (eyelids, conjunctiva, cornea, ICB, aqueous humor, post final peri-ocular dose) is listed as “remained almost constant for up to 24 hours”.
